The AUC(0-inf) is the area under the concentration-time curve extrapolated to infinity. A high value points to more exposure. For orientation: AUC(0-t) means the area under the concentration-time curve up to a stated or last time point. A higher AUC(0-t) goes with high exposure. What is called CL/F is the apparent clearance, not corrected for the fraction that reaches the circulation. As usually defined, the Cmax is the maximum level reached in the sampled fluid or tissue. The MRT inf is the average time that molecules of a dose stay in the body. In general, MRT last refers to a mean duration of stay, worked out from the concentration-time curve. One may read the Tmax as the time at which the peak concentration occurs. What is called Vd/F is the volume of distribution divided by bioavailability. As a reminder, the half-life is the time needed for the level to fall by half in the phase considered. A lower half-life goes with fast loss.

Marks after values point to notes of the source that are not given here.

Series [1] is described as follows: Pharmacokinetic study of LUT and LUT-NS-LP in rats. Type of series: in vivo, Sprague-Dawley (SD) rats.
The nature of series [2]: In vitro dissolution test. The format is physicochemical. The following applies: 100 rpm, n=3.
Series [3] relates to CYP450s of Rat Liver Microsomes (RLMs). The series is described as follows: In vitro CYP450 metabolism of ATV and inhibition by LUT in rat liver microsomes. Particulars: CYP450s mixture of RLMs, Lineweaver-Burk plots. (In general: Liver microsomes are vesicles of endoplasmic reticulum, rich in cytochrome P450 enzymes.)
The conditions of series [4]: PBPK model input; ATV value marked (acid); ref Drugbank; cited from earlier work.
For series [5] the following is noted: stated in the discussion without reference; species not given; cited from earlier work.
[6] abbreviates: male, Sprague-Dawley, rat, plasma, po, 200 mg/kg.

In series [1] (setting [6]), `O=c1cc(-c2ccc(O)c(O)c2)oc2cc(O)cc(O)c12` [LUT, Luteolin] showed an AUC(0-inf) of 4230 ± 1510 ng·h/mL, an AUC(0-t) of 3840 ± 1390 ng·h/mL, a CL/F of 880 mL/min/kg and a peak concentration (Cmax) of 1140 ± 320 ng/mL. For the same molecule, in series [1] (setting [6]), the MRT inf was 4.02 ± 1.68 h, the MRT last came out at 2.88 ± 0.96 h, the Tmax stood at 0.92 ± 0.59 h and the Vd/F was 178 ± 85.1 L/kg. The half-life in series [1] (setting [6]) was 2.6 ± 1.52 h. For the same molecule, the “F (bioavailability)” value in series [1] (relative to LUT, rats, oral 200 mg/kg) was 1 fold. Also, the Drug release in series [2] (pH 1.2 buffer containing 0.05% Tween 80, after 120 min, 37°C) amounted to 36.58 ± 0.99%. For the same molecule, the Drug release in series [2] (pH 6.8 phosphate buffer containing 0.05% Tween 80, 37°C) is recorded as 59.10 ± 3.13%. Also, in series [3], the “Form of inhibition of ATV metabolism by LUT” value was “non-competitive”. The pKa in series [4] is 6.57^a. For the same molecule, the Oral absolute bioavailability result in series [5] is “under 5%”.

Source of the values: article PMC11881160 (International Journal of Nanomedicine, 2025).
